Counter-ions that a name gives are not always drawn.
Test system: recombinant guanylate cyclase reporter cell line
Test: Effect on a recombinant guanylate cyclase reporter cell line
Format: cell-based
Settings: in some cases mean values from individual determinations, read-out: MEC (minimum effective concentration)
Description: B-2. Effect on a Recombinant Guanylate Cyclase Reporter Cell Line
The cellular activity of the compounds according to the invention is determined using a recombinant guanylate cyclase reporter cell line, as described in F. Wunder et al., Anal. Biochem. 339, 104-112 (2005).
Representative MEC values (MEC=minimum effective concentration) for the compounds of the invention are shown in the table below (in some cases as mean values from individual determinations): […]

**Q.** For `Cc1nc2c(OCc3c(F)cccc3F)cccn2c1-c1ncnc(NCC(C)(N)CCC(F)(F)F)n1` (single isomer, unassigned; enantiomer b) [Example 12, ent-N^1-(4-{8-[(2,6-Difluorobenzyl)oxy]-2-methylimidazo[1,2-a]pyridin-3-yl}-1,3,5-triazin-2-yl)-5,5,5-trifluoro-2-methylpentane-1,2-diamine (enantiomer B)], which minimal effective concentration is on record?
**A.** 1 µM

**Q.** For `Cc1nc2c(OCc3c(F)cccc3F)cccn2c1-c1ccc(NCc2ccccc2)nc1` [Example 1, N-Benzyl-5-{8-[(2,6-difluorobenzyl)oxy]-2-methylimidazo[1,2-a]pyridin-3-yl}pyridine-2-amine], which minimal effective concentration is on record?
**A.** 0.1 µM

**Q.** Which minimal effective concentration does the source give for `COCCNc1ccc(-c2c(C)nc3c(OCc4c(F)cccc4F)cccn23)cn1` [Example 2] here?
**A.** 0.1 µM

**Q.** With `CCN(C)c1ccc(-c2c(C)nc3c(OCc4c(F)cccc4F)cccn23)cn1` [Example 3] as the molecule, how does the minimal effective concentration read?
**A.** 0.2 µM

**Q.** `Cc1nc2c(OCc3c(F)cccc3F)cccn2c1-c1ccc(N2CC(C)OC(C)C2)nc1` (stereo not drawn) [Example 4] was tested. Which minimal effective concentration did it give?
**A.** 1 µM

**Q.** With `Cc1nc2c(OCc3c(F)cccc3F)cccn2c1-c1ccc(Nc2ccccc2)nc1` [Example 5] as the molecule, how does the minimal effective concentration read?
**A.** 3 µM

**Q.** With `Cc1nc2c(OCc3c(F)cccc3F)cccn2c1-c1cnc(N2CCN(C)CC2)nc1` [Example 6, 8-[(2,6-Difluorobenzyl)oxy]-2-methyl-3-[2-(4-methylpiperazin-1-yl)pyrimidin-5-yl]imidazo[1,2-a]pyridine] as the molecule, how does the minimal effective concentration read?
**A.** 10 µM

**Q.** `Cc1cc(OCc2c(F)cccc2F)c2nc(C)c(-c3nc(N)nc(N)n3)n2c1` [Example 7, 6-{8-[(2,6-Difluorobenzyl)oxy]-2,6-dimethylimidazo[1,2-a]pyridin-3-yl}-1,3,5-triazine-2,4-diamine] was tested. Which minimal effective concentration did it give?
**A.** 0.3 µM

**Q.** `Cc1cc(OCc2c(F)cccc2F)c2nc(C)c(-c3nc(N)nc(N(C)C)n3)n2c1` [Example 8, 6-{8-[(2,6-Difluorobenzyl)oxy]-2,6-dimethylimidazo[1,2-a]pyridin-3-yl}-N, N-dimethyl-1,3,5-triazine-2,4-diamine] was tested. Which minimal effective concentration did it give?
**A.** 0.3 µM

**Q.** `CCCNc1nc(N)nc(-c2c(C)nc3c(OCc4c(F)cccc4F)cc(C)cn23)n1` [Example 9, 6-{8-[(2,6-Difluorobenzyl)oxy]-2,6-dimethylimidazo[1,2-a]pyridin-3-yl}-N-propyl-1,3,5-triazine-2,4-diamine] was tested. Which minimal effective concentration did it give?
**A.** 0.3 µM

**Q.** `Cc1cc(OCc2c(F)cccc2F)c2nc(C)c(-c3cc(NCC(C)(C)N)ncc3F)n2c1` [Example 10, N′-(4-{8-[(2,6-Difluorobenzyl)oxy]-2,6-dimethylimidazo[1,2-a]pyridin-3-yl}-5-fluoropyridin-2-yl)-2-methylpropane-1,2-diamine] was tested. Which minimal effective concentration did it give?
**A.** 0.1 µM

**Q.** With `Cc1nc2c(OCc3c(F)cccc3F)cccn2c1-c1nc(Cl)nc(NCC(C)(C)N)n1` [Example 11, N′-(4-Chloro-6-{8-[(2,6-difluorobenzyl)oxy]-2-methylimidazo[1,2-a]pyridin-3-yl}-1,3,5-triazin-2-yl)-2-methylpropane-1,2-diamine] as the molecule, how does the minimal effective concentration read?
**A.** 0.3 µM

**Q.** `Cc1cc(OCc2c(F)cccc2F)c2nc(C)c(-c3ccnc(N4CCNCC4)c3)n2c1` [Example 13, 8-[(2,6-Difluorobenzyl)oxy]-2,6-dimethyl-3-[2-(piperazin-1-yl)pyridin-4-yl]imidazo[1,2-a]pyridine] was tested. Which minimal effective concentration did it give?
**A.** 0.2 µM

**Q.** With `Cc1cc(OCc2c(F)cccc2F)c2nc(C)c(-c3cccc(N4CCCC4)c3)n2c1` [Example 14, 8-[(2,6-Difluorobenzyl)oxy]-2,6-dimethyl-3-[3-(pyrrolidin-1-yl)phenyl]imidazo[1,2-a]pyridine] as the molecule, how does the minimal effective concentration read?
**A.** 6.5 µM

**Q.** `CC(=O)Nc1cccc(-c2c(C)nc3c(OCc4c(F)cccc4F)cc(C)cn23)c1` [Example 15, N-(3-{8-[(2,6-Difluorobenzyl)oxy]-2,6-dimethylimidazo[1,2-a]pyridin-3-yl}phenyl)acetamide] was tested. Which minimal effective concentration did it give?
**A.** 0.02 µM

**Q.** How did the minimal effective concentration turn out when `Cc1cc(OCc2c(F)ccc(F)c2F)c2nc(C)c(-c3nccc(N4CCCC4)n3)n2c1` [Example 16, 2,6-Dimethyl-3-[4-(pyrrolidin-1-yl)pyrimidin-2-yl]-8-[(2,3,6-trifluorobenzyl)oxy]imidazo[1,2-a]pyridine trifluoroacetate] was run?
**A.** 3 µM

**Q.** With `CC(=O)Nc1cccc(-c2c(C)nc3c(OCC4CCCCC4)cccn23)c1` [Example 19, N-{3-[8-(Cyclohexylmethoxy)-2-methylimidazo[1,2-a]pyridin-3-yl]phenyl}acetamide] as the molecule, how does the minimal effective concentration read?
**A.** 0.2 µM

**Q.** Which minimal effective concentration does the source give for `CC(=O)Nc1cccc(-c2c(C)nc3c(OCc4ncccc4F)cc(Cl)cn23)c1` [Example 20, N-(3-{6-Chloro-8-[(3-fluoropyridin-2-yl)methoxy]-2-methylimidazo[1,2-a]pyridin-3-yl}phenyl)acetamide] here?
**A.** 0.3 µM

Reference: patent US10292970B2, “Heteroaryl-substituted imidazo[1,2-A]pyridines and their use” (BAYER PHARMA AKTIENGESELLSCHAFT, priority 2014, dated 2019)
